Test results reported in ChEMBL document CHEMBL2062361, “Synthesis and antiproliferative evaluation of some new amidino-substituted bis-benzothiazolyl-pyridines and pyrazine” (Eur J Med Chem, 2012).

What was measured:
MCF7 = experiment: Antiproliferative activity against human MCF7 cells after 72 hrs by MTT assay; type: functional, cell-based; details: MCF7, 72 h
BJ = experiment: Antiproliferative activity against human BJ cells after 72 hrs by MTT assay; type: cell-based
SW-620 = experiment: Antiproliferative activity against human SW620 cells after 72 hrs by MTT assay; type: functional, cell-based; details: SW-620, 72 h
MIA PaCa-2 = experiment: Antiproliferative activity against human MIAPaCa2 cells after 72 hrs by MTT assay; type: functional, cell-based; details: MIA PaCa-2, 72 h
SK-BR-3 = experiment: Antiproliferative activity against human SK-BR-3 cells after 72 hrs by MTT assay; type: functional, cell-based; details: SK-BR-3, 72 h
HeLa = experiment: Antiproliferative activity against human HeLa cells after 72 hrs by MTT assay; type: functional, cell-based

| IC50 (MCF7) [µM] | IC50 (SW-620) [µM] | IC50 (MIA PaCa-2) [µM] | IC50 (SK-BR-3) [µM] | IC50 (HeLa) [µM] | Structure (SMILES) | IC50 (BJ) [µM] |
| --- | --- | --- | --- | --- | --- | --- |
| 4.4 | 2.8 | 4.4 | 3.4 | 3.4 | c1cc2nc(-c3ccc(-c4nc5ccc(C6=NCCN6)cc5s4)nc3)sc2cc1C1=NCCN1 | 0.34 |
| 1.2 | 1.8 | 5.1 | 0.9 | 1.9 | c1cc2nc(-c3cnc(-c4nc5ccc(C6=NCCN6)cc5s4)cn3)sc2cc1C1=NCCN1 | 0.07 |

More lines, now with the values behind:

| Structure (SMILES) | IC50 (MCF7) [µM] | IC50 (SW-620) [µM] | IC50 (MIA PaCa-2) [µM] | IC50 (SK-BR-3) [µM] | IC50 (HeLa) [µM] | IC50 (BJ) [µM] |
| --- | --- | --- | --- | --- | --- | --- |
| c1cc2nc(-c3cncc(-c4nc5ccc(C6=NCCN6)cc5s4)c3)sc2cc1C1=NCCN1 | 0.9 | 0.42 | 6.6 | 0.5 | 0.3 | 0.16 |
| N=C(N)c1ccc2nc(-c3ccnc(-c4nc5ccc(C(=N)N)cc5s4)c3)sc2c1 | 78.9 | > 100 | 61.1 | > 100 | > 100 | 2.92 |
| N=C(N)c1ccc2nc(-c3cncc(-c4nc5ccc(C(=N)N)cc5s4)c3)sc2c1 | > 100 | > 100 | 86.7 | > 100 | > 100 | 15 |
